Patent publication US20210009564A1, “CALPAIN MODULATORS AND THERAPEUTIC USES THEREOF” (BLADE THERAPERTICS, INC., priority 2018, published 2021)

How the values were obtained:
[1] = molecular target: T1, Human Calpain 1/NS1 (Homo sapiens, UniProt P07384); assay: Calpain inhibition, continuous fluorescence (FRET substrate) assay, calpain 1; type: biochemical; conditions: SensoLyte 520 FRET substrate, 25C
T1 sequence (P07384 1-714): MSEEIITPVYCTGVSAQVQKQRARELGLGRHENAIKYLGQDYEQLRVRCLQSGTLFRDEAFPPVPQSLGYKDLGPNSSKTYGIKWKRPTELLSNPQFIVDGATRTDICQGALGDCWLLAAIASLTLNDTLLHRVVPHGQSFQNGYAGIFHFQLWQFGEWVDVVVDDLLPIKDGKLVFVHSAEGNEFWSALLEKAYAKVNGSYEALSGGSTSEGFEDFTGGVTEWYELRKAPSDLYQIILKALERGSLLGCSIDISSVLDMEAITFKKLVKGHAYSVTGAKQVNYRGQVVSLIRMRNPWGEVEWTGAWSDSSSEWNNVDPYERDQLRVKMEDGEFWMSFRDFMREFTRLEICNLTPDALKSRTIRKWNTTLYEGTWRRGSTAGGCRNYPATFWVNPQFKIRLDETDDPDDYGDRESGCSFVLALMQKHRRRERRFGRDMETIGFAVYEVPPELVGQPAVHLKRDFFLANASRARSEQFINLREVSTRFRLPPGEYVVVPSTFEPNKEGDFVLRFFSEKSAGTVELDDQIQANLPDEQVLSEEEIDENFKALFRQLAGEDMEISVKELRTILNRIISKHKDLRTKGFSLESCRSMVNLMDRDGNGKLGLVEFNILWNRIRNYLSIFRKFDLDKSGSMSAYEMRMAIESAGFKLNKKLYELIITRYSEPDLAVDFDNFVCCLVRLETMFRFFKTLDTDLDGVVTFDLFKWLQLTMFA
T1 sequence (P04632 1-268 partner): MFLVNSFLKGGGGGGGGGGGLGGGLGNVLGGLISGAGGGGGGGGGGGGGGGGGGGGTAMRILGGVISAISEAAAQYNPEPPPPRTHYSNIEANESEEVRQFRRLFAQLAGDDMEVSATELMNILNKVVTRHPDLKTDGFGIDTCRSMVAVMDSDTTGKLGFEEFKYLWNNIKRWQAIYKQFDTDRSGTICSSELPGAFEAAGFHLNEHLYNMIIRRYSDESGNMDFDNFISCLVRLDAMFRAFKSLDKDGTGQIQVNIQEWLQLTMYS
Method: (§1) Calpain 1, 2, and 9 activity and inhibition thereof was assessed by means of a continuous fluorescence assay. The SensoLyte 520 Calpain substrate (Anaspec Inc) was optimized for detecting calpain activity. This substrate contains an internally quenched 5-FAM/QXLTM 520 FRET pair. Calpains 1, 2, and 9 cleave the FRET substrate into two separate fragments resulting in an increase of 5-FAM fluorescence that is proportional to calpain activity Assays were typically setup in black 384-well plates using automated liquid handling as follows. Calpain assay base buffer typically contains 50 mM Tris, pH 7.5, 100 mM NaCl and 1 mM DTT. Inhibitors were serially diluted in DMSO and used to setup 2× mixtures with calpains in the aforementioned buffer. After incubation at ambient temperature (25C), the reaction was initiated by adding a 2× mix of the fluorescent peptide substrate and CaCl2) (required for in-situ calpain activation) in the same buffer. Reaction progress curve data were typically collected for 10 min using excitation/emission wavelengths of 490 nm/520 nm on SpectraMax i3× or the FLIPR-Tetra plate readers (Molecular Devices Inc). Reaction rates were calculated from progress curve slopes typically over 1-5 min. Dose response curves (rate vs. log inhibitor concentration) were typically fit to a 4-parameter logistic function to extract IC50 values.

[2] = molecular target: T2, Human Calpain 2/NS1 (Homo sapiens, UniProt P17655); assay: Calpain inhibition, continuous fluorescence (FRET substrate) assay, calpain 2; type: biochemical; conditions: SensoLyte 520 FRET substrate, 25C
T2 sequence (P17655 1-700): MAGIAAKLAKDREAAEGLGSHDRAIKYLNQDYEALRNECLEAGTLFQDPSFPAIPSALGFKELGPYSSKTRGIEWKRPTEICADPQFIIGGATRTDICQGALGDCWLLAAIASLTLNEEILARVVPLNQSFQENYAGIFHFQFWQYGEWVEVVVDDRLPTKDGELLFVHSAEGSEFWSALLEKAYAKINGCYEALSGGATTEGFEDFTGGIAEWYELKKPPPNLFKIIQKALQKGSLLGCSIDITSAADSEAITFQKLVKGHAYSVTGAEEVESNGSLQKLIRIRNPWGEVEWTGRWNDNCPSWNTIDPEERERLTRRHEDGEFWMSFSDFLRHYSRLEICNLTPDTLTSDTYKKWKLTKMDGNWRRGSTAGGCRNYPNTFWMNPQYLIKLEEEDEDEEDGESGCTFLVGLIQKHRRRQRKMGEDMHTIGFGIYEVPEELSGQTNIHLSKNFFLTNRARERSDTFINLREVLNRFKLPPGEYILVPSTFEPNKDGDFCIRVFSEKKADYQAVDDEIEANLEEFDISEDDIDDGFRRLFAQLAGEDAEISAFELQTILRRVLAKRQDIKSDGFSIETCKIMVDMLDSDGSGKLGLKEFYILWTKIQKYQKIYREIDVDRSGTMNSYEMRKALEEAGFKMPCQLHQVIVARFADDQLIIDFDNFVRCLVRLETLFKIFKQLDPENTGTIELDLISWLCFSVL
T2 sequence (P04632 1-268 partner): T1 sequence (P04632 1-268 partner)
Method: as §1

[3] = molecular target: T3, Human Calpain 9/NS1 (Homo sapiens, UniProt O14815); assay: Calpain inhibition, continuous fluorescence (FRET substrate) assay, calpain 9; type: biochemical; conditions: SensoLyte 520 FRET substrate, 25C
T3 sequence (O14815 1-690): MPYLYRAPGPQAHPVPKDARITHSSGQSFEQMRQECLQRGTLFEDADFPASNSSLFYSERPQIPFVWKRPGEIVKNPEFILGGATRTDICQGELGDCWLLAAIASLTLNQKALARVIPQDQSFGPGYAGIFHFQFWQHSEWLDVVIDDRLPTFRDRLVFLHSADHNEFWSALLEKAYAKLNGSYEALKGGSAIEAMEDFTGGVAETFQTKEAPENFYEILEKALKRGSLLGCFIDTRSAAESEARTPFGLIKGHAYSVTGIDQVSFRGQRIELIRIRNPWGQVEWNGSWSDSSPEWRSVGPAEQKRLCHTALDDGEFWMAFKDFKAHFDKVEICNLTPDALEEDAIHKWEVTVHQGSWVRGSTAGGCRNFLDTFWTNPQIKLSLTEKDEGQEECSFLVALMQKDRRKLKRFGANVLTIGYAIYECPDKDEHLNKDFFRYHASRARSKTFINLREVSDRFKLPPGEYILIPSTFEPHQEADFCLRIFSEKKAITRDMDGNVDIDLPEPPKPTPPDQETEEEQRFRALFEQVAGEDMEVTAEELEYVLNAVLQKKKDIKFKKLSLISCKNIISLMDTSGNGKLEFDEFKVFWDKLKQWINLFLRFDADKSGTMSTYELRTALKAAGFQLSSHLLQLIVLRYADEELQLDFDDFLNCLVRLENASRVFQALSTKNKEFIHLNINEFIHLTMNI
T3 sequence (P04632 1-268 partner): T1 sequence (P04632 1-268 partner)
Method: as §1

[4] = system: Calpain activity in SH-SY5Y cells; assay: SH-SY5Y spectrin breakdown product (SBDP-150) western blot assay; type: cell-based; conditions: SH-SY5Y cells, 25 uM A23187, SBDP-150 western blot, read-out: SH-SY5Y Spectrin IC50
[5] = system: Calpain activity in SH-SY5Y cells; assay: SH-SY5Y Suc-LLVY-AMC fluorescence assay; type: cell-based; conditions: SH-SY5Y cells, 100 uM Suc-LLVY-AMC, read-out: SH-SY5Y + AMC IC50

| IC50 [1] [µM] | IC50 [2] [µM] | IC50 [3] [µM] | IC50 ([4]; Homo sapiens) [µM] | IC50 ([5]; Homo sapiens) [µM] | Structure (SMILES) | IC50 [4] [µM] | IC50 [5] [µM] |
| --- | --- | --- | --- | --- | --- | --- | --- |
| < 3 | < 3 | < 3 | 10 to 25 | < 10 | Cc1cc(-c2nc(C)oc2C(=O)NC(Cc2ccccc2)C(=O)C(N)=O)c(C)o1 (stereo not drawn) [Compound 78, N-(4-AMINO-3,4-DIOXO-1-PHENYLBUTAN-2-YL)-4-(2,5-DIMETHYLFURAN-3-YL)-2-METHYLOXAZOLE-5-CARBOXAMIDE] | – | – |
| < 3 | < 3 | < 3 | < 10 | < 10 | Cc1nc(-c2ccccc2F)c(C(=O)NC(Cc2cccc(Cl)c2)C(=O)C(N)=O)o1 (stereo not drawn) [Compound 89, N-(4-AMINO-1-(3-CHLOROPHENYL)-3,4-DIOXOBUTAN-2-YL)-4-(2-FLUOROPHENYL)-2-METHYLOXAZOLE-5-CARBOXAMIDE] | – | – |
| < 3 | < 3 | < 3 | < 10 | < 10 | Cc1occc1-c1nn(C(F)F)cc1C(=O)NC(Cc1ccccc1)C(=O)C(N)=O (stereo not drawn) [Compound 26, N-(4-AMINO-3,4-DIOXO-1-PHENYLBUTAN-2-YL)-1-(DIFLUOROMETHYL)-3-(2-METHYLFURAN-3-YL)-1H-PYRAZOLE-4-CARBOXAMIDE] | – | – |

More lines, now with the values behind:

| Structure (SMILES) | IC50 [1] [µM] | IC50 [2] [µM] | IC50 [3] [µM] | IC50 ([4]; Homo sapiens) [µM] | IC50 ([5]; Homo sapiens) [µM] | IC50 [4] [µM] | IC50 [5] [µM] |
| --- | --- | --- | --- | --- | --- | --- | --- |
| NC(=O)C(=O)C(Cc1ccccc1)NC(=O)c1cn(C(F)F)nc1-c1coc(Cl)c1 (stereo not drawn) [Compound 21, N-(4-AMINO-3,4-DIOXO-1-PHENYLBUTAN-2-YL)-3-(5-CHLOROFURAN-3-YL)-1-(DIFLUOROMETHYL)-1H-PYRAZOLE-4-CARBOXAMIDE] | < 3 | < 3 | < 3 | < 10 | < 10 | – | – |
| Cn1cc(C(=O)NC(Cc2ccccc2)C(=O)C(N)=O)c(-c2cccc3c2cnn3C)n1 (stereo not drawn) [Compound 32, N-(4-AMINO-3,4-DIOXO-1-PHENYLBUTAN-2-YL)-1-METHYL-3-(1-METHYL-1H-INDAZOL-4-YL)-1H-PYRAZOLE-4-CARBOXAMIDE] | < 3 | < 3 | < 3 | 10 to 25 | 10 to 25 | – | – |
| NC(=O)C(=O)C(Cc1ccccc1)NC(=O)c1oc(C(F)F)nc1-c1cccc2cn[nH]c12 (stereo not drawn) [Compound 94, N-(4-AMINO-3,4-DIOXO-1-PHENYLBUTAN-2-YL)-2-(DIFLUOROMETHYL)-4-(1H-INDAZOL-7-YL)OXAZOLE-5-CARBOXAMIDE] | < 3 | < 3 | < 3 | – | – | < 10 | < 10 |
